In brackets after ≈: the same amount, converted by molar mass. Where two headings read alike, the source gives them in different places.
Legend:
[1] = tested on: Mycobacterium avium 330/88; assay: Antimycobacterial micromethod in Šula's medium, M. avium; type: cell-based
[2] = tested on: M. kansasii 6509/96 (clinical isolate); assay: Antimycobacterial micromethod in Šula's medium, M. kansasii 6509/96; type: cell-based; conditions: Mycobacterium kansasii
[3] = tested on: Mycobacterium tuberculosis H37Rv (331/88); assay: Antimycobacterial micromethod in Šula's medium, M. tuberculosis; type: cell-based
[4] = tested on: Mycobacterium kansasii 235/80; assay: Antimycobacterial micromethod in Šula's medium, M. kansasii 235/80; type: cell-based
HepG2 cells = assay: Cytotoxicity, CellTiter 96 assay; type: cell-based, human; conditions: 24 h incubation
Description: HepG2, human hepatocellular carcinoma cells (ATCC HB-8065; passage 5–8) purchased from Health Protection Agency Culture Collections (ECACC, Salisbury, UK) were cultured in Minimum Essentials Eagle Medium supplemented with 10% fetal bovine serum, 1% L-glutamine solution and non-essential amino acid solution (Sigma-Aldrich, St. Louis, MO, USA) in a humidified atmosphere containing 5% CO2 at 37 °C. For subculturing, the cells were harvested after trypsin/EDTA (Sigma-Aldrich, St. Louis, USA) treatment at 37 °C. To evaluate cytotoxicity, the cells treated with the tested substances were used as experimental groups whereas untreated HepG2 cells served as control groups.
The cells were seeded in a density of 10 000 cells per well in a 96-well plate. The following day the cells were treated with each of the tested substances dissolved in DMSO (maximal incubation concentration of DMSO was 1% v/v). The tested substances were prepared at different incubation concentrations in triplicates according to their solubility. Simultaneously, the controls representing 100% cell viability, 0% cell viability (the cells treated with 10% DMSO), no cell control and vehiculum controls were also involved in triplicates. After 24 h incubation in a humidified atmosphere containing 5% CO2 at 37 °C, the reagent from the kit CellTiter 96 AQueous One Solution Cell Proliferation Assay (CellTiter 96; Promega, Fitchburg, WI, USA) was added. After 2 h incubation at 37 °C absorbance of samples was recorded at 490 nm (TECAN, Infinita M200, Grödig, Austria). A standard toxicological parameter IC50 was calculated by nonlinear regression from a semilogarithmic plot of incubation concentration versus percentage of absorbance relative to untreated controls using GraphPad Prism software (version 6; GraphPad Software, Inc., La Jolla, CA, USA).
The CellTiter 96 assay used is based on the reduction of tetrazolium dye in living cells to formazan, which is then determined colorimetrically. This reduction is related to availability of NADH or NADPH. The decline in levels of these metabolically important compounds in the cell causes that the production of formazan is reduced. For quantitative comparison of cytotoxicity, the parameter IC50 was used.

[5] = tested on: ESBL-positive Klebsiella pneumoniae J 14368/08; conditions: ESBL-positive K. pneumoniae
[6] = tested on: Staphylococcus epidermidis H 6966/08; assay: Antibacterial microdilution broth method, S. epidermidis; type: cell-based; conditions: S. epidermidis
[7] = tested on: Klebsiella pneumoniae D 11750/08; assay: Antibacterial microdilution broth method, K. pneumoniae; conditions: K. pneumoniae D 11750/08
[8] = tested on: Enterococcus faecalis ATCC 29212, CCM 4224; assay: Antibacterial microdilution broth method, E. faecalis; type: cell-based
[9] = tested on: methicillin-resistant Staphylococcus aureus ATCC 43300, CCM 4750 (MRSA); assay: Antibacterial microdilution broth method, MRSA; type: cell-based
[10] = tested on: Pseudomonas aeruginosa ATCC 27853, CCM 3955; assay: Antibacterial microdilution broth method, P. aeruginosa; type: cell-based; conditions: P. aeruginosa
[11] = tested on: Escherichia coli ATCC 25922, CCM 3954; assay: Antibacterial microdilution broth method, E. coli; type: cell-based
[12] = tested on: Aspergillus fumigatus 231; assay: Antifungal microdilution broth method, A. fumigatus; type: cell-based
Description: (§1) The antifungal properties were evaluated against five yeast strains, namely: Candida albicans ATCC 44859, Candida tropicalis 156, Candida krusei […], Candida glabrata 20/I, Trichosporon […] 1188 and three strains of filamentous fungi: Aspergillus fumigatus 231, Lichtheimia corymbifera 272, and Trichophyton interdigitale 445. A microdilution broth method was performed according to EUCAST II, III instructions with slight modifications. Briefly, tested compounds were dissolved in DMSO and diluted in a twofold manner with RPMI-1640 medium with L-glutamine, supplemented with 2% glucose (w/v) and buffered to pH 7.0 with 3 morpholinopropane-1-sulfonic acid (all components were purchased from Sigma-Aldrich, USA). […] Positive controls consisted of test microbe solely, while negative controls consisted of medium and DMSO. Internal quality control was included too. Visual inspection was used for MIC endpoints evaluation. The experiments were conducted in duplicates. For the results to be valid, the difference in MIC determined from two parallel measurements must not be greater than one step on the dilution scale. PABA and triazole antimycotic drug fluconazole were involved as the reference compounds.

Candida glabrata 20/I = assay: Antifungal microdilution broth method, C. glabrata; type: cell-based; conditions: Nakaseomyces glabratus
Description: as §1

Candida tropicalis 156 = assay: Antifungal microdilution broth method, C. tropicalis; type: cell-based
Description: as §1

[13] = tested on: Trichophyton interdigitale 445; assay: Antifungal microdilution broth method, T. interdigitale; type: cell-based
Description: as §1

[14] = tested on: Lichtheimia corymbifera 272; assay: Antifungal microdilution broth method, L. corymbifera; type: cell-based
Description: as §1

Candida krusei E28 = assay: Antifungal microdilution broth method, C. krusei; type: cell-based; conditions: Pichia kudriavzevii
Description: as §1

[15] = tested on: Candida albicans ATCC 44859; assay: Antifungal microdilution broth method, C. albicans; type: cell-based
Description: as §1

Trichosporon asahii 1188 = assay: Antifungal microdilution broth method, T. asahii; type: cell-based
Description: as §1

[16] = 24 h incubation, read-out: MIC PA 24 h
[17] = 48 h incubation, read-out: MIC PA 48 h
[18] = 24 h incubation, read-out: MIC EC 24 h
[19] = 48 h incubation, read-out: MIC EC 48 h

NNC(=O)c1ccncc1 [INH, isoniazid, reference compound]
MIC ([1]; 330/88, 336 h, 14 days incubation at 37 °C, read-out: MIC M. avium 330/88 14 d): > 250 µM | MIC ([1]; 330/88, 504 h, 21 days incubation at 37 °C, read-out: MIC M. avium 330/88 21 d): > 250 µM | MIC ([2]; 168 h, 7 days incubation at 37 °C, read-out: MIC M. kansasii 6509/96 7 d): 8 µM (≈ 1.1 µg/mL) | MIC ([2]; 336 h, 14 days incubation at 37 °C, read-out: MIC M. kansasii 6509/96 14 d): 8 µM (≈ 1.1 µg/mL) | MIC ([2]; 504 h, 21 days incubation at 37 °C, read-out: MIC M. kansasii 6509/96 21 d): 8 µM (≈ 1.1 µg/mL) | MIC ([3]; 336 h, 14 days incubation at 37 °C, read-out: MIC Mtb. 331/88 14 d): 0.5 µM (≈ 0.0686 µg/mL) | MIC ([3]; 504 h, 21 days incubation at 37 °C, read-out: MIC Mtb. 331/88 21 d): 1 µM (≈ 0.137 µg/mL) | MIC ([4]; 235/80, 168 h, 7 days incubation at 37 °C, read-out: MIC M. kansasii 235/80 7 d): > 250 µM | MIC ([4]; 235/80, 336 h, 14 days incubation at 37 °C, read-out: MIC M. kansasii 235/80 14 d): > 250 µM | MIC ([4]; 235/80, 504 h, 21 days incubation at 37 °C, read-out: MIC M. kansasii 235/80 21 d): > 250 µM

N.N.[Cl][Pt][Cl] [Cisplatin, cisplatin, reference compound]
IC50 (HepG2 cells): 21.3 µM

bacitracin [reference compound]
MIC KP-E 24 h ([5]; 24 h incubation): >500 µM | MIC KP-E 48 h ([5]; 48 h incubation): >500 µM | MIC ([6]; 24 h incubation, read-out: MIC SE 24 h): 15.62 µM | MIC ([6]; 48 h incubation, read-out: MIC SE 48 h): 31.25 µM | MIC KP 24 h ([7]; 24 h incubation): >500 µM | MIC KP 48 h ([7]; 48 h incubation): >500 µM | MIC ([8]; 24 h incubation, read-out: MIC EF 24 h): 15.62 µM | MIC ([8]; 48 h incubation, read-out: MIC EF 48 h): 62.5 µM | MIC ([9]; 24 h incubation, read-out: MIC MRSA 24 h): 15.62 µM | MIC ([9]; 48 h incubation, read-out: MIC MRSA 48 h): 15.62 µM | MIC [10, 16]: >500 µM | MIC [10, 17]: >500 µM | MIC [11, 18]: >500 µM | MIC [11, 19]: >500 µM

OC(Cn1cncn1)(Cn1cncn1)c1ccc(F)cc1F [FLU, fluconazole, reference compound]
MIC50 ([12]; 24 h, fluconazole values mean MIC50, read-out: MIC50 AF 24 h): > 500 µM | MIC50 ([12]; 48 h, fluconazole values mean MIC50, read-out: MIC50 AF 48 h): > 500 µM | MIC50 (Candida glabrata 20/I; 24 h, fluconazole values mean MIC50, read-out: MIC50 CG 24 h): 31.2 µM (≈ 9.57 µg/mL) | MIC50 (Candida glabrata 20/I; 48 h, fluconazole values mean MIC50, read-out: MIC50 CG 48 h): 500 µM (≈ 153 µg/mL) | MIC50 (Candida tropicalis 156; 24 h, fluconazole values mean MIC50, read-out: MIC50 CT 24 h): > 500 µM | MIC50 (Candida tropicalis 156; 48 h, fluconazole values mean MIC50, read-out: MIC50 CT 48 h): > 500 µM | MIC50 ([13]; 72 h, fluconazole values mean MIC50, read-out: MIC50 TI 72 h): 7.81 µM (≈ 2.39 µg/mL) | MIC50 ([13]; 120 h, fluconazole values mean MIC50, read-out: MIC50 TI 120 h): 125 µM (≈ 38.3 µg/mL) | MIC50 ([14]; 24 h, fluconazole values mean MIC50, read-out: MIC50 LC 24 h): > 500 µM | MIC50 ([14]; 48 h, fluconazole values mean MIC50, read-out: MIC50 LC 48 h): > 500 µM | MIC50 (Candida krusei E28; 24 h, fluconazole values mean MIC50, read-out: MIC50 CK 24 h): 125 µM (≈ 38.3 µg/mL) | MIC50 (Candida krusei E28; 48 h, fluconazole values mean MIC50, read-out: MIC50 CK 48 h): 250 µM (≈ 76.6 µg/mL) | MIC50 ([15]; ATCC44859, 24 h, fluconazole values mean MIC50, read-out: MIC50 CA 24 h): 0.24 µM (≈ 0.0735 µg/mL) | MIC50 ([15]; ATCC44859, 48 h, fluconazole values mean MIC50, read-out: MIC50 CA 48 h): 0.24 µM (≈ 0.0735 µg/mL) | MIC50 (Trichosporon asahii 1188; 24 h, fluconazole values mean MIC50, read-out: MIC50 TA 24 h): 250 µM (≈ 76.6 µg/mL) | MIC50 (Trichosporon asahii 1188; 48 h, fluconazole values mean MIC50, read-out: MIC50 TA 48 h): 500 µM (≈ 153 µg/mL)

NC[C@@H]1O[C@H](O[C@H]2[C@@H](O)[C@H](O[C@@H]3[C@@H](O)[C@H](N)C[C@H](N)[C@H]3O[C@H]3O[C@H](CN)[C@@H](O)[C@H](O)[C@H]3N)O[C@@H]2CO)[C@H](N)[C@@H](O)[C@@H]1O [NEO, neomycin, reference compound]
MIC [10, 16]: 7.81 µM (≈ 4.8 µg/mL) | MIC [10, 17]: 15.62 µM (≈ 9.6 µg/mL) | MIC [11, 18]: 3.9 µM (≈ 2.4 µg/mL) | MIC [11, 19]: 3.9 µM (≈ 2.4 µg/mL)

From paper PMC7023430, “4-Aminobenzoic Acid Derivatives: Converting Folate Precursor to Antimicrobial and Cytotoxic Agents” (Biomolecules, 2019)
